Where a name gives a salt, the structure may show the parent alone.
How the values were obtained:
[1] = biological target: T1, SMYD3 (Homo sapiens (Human), UniProt Q9H7B4); experiment: SMYD3 cell assay (Trimethyl-MEKK2 In-Cell Western in 293T/17 cells transfected with MEKK2-flag and SMYD3); format: cell-based
Description: Trimethyl-MEKK2-in-Cell Western Assay
MEM/Glutamax medium, Optimem Reduced Serum medium, penicillin-streptomycin, 0.05% trypsin and 1×D-PBS were purchased from Life Technologies, Grand Island, N.Y., USA. PBS-10× was purchased from Ambion, Life Technologies, Grand Island, N.Y., USA. PBS with Tween 20 (PBST (10×)) was purchased from KPL, Gaithersburg, Md., USA. Tet System FBS-approved FBS US Source was purchased from Clontech, Mountain View, Calif., USA. Odyssey blocking buffer, 800CW goat anti-rabbit IgG (H+L) antibody, 680CW Goat anti-mouse IgG (H+L) and Licor Odyssey infrared scanner were purchased from Licor Biosciences, Lincoln, Nebr., USA. Tri-methyl-Lysine [A260]-MEKK2 antibody, MEKK2 and SMYD3 plasmids were made at Epizyme. Anti-flag monoclonal mouse antibody was purchased from Sigma, St. Louis, Mo., USA. Methanol was purchased from VWR, Franklin, Mass., USA. 10% Tween 20 was purchased from KPL, Inc., Gaithersburg, Md., USA. Fugene was purchased from Promega, Madison, Wis., USA. The Biotek ELx405 was purchased from BioTek, Winooski, Vt., USA. The multidrop combi was purchased from Thermo Scientific, Waltham, Mass., USA.
Cell Treatment, in Cell Western (ICW) for Detection of Trimethyl-Lysine-MEKK2 and MEKK2.
Plasmids were prepared for delivery to cells by first mixing 1350 μL Opti-MEM with Fugene (81 μL) in a sterile Eppendorf and incubated for five minutes at room temperature (RT). […] Entire volume of Opti-MEM/Fugene mixture was then added to a microfuge tube containing DNA plasmid, mixed and then incubated ×15 minutes at RT. […] Medium was then removed, and cells were washed once with PBS in the flask. Trypsin 0.05% (3 mL) was added and cells incubated for three minutes. Room temperature MEM+10% Tet system FBS was added and cells were mixed gently, and counted using the Vi-cell. Cells were seeded at 100,000 cells/mL in 50 μL MEM/10% Tet FBS/Pen/Strep to a 384 well black/clear poly-D-lysine coated plate containing test agent diluted in DMSO. The final top concentration of test compound was 40 μM. […] Plates were incubated ×30 minutes at RT in low-airflow area, followed by incubation at 37° C. under 5% CO2 for 24 hours. Medium was aspirated from all wells of assay plates prior to fixation and permeabilization with ice cold (−20° C.) methanol (90 μL/well) for ten minutes. Plates were rinsed with PBS three times on BioTek ELx405. PBS was removed with a final aspiration, and Odyssey blocking buffer (50 μL/well) was added to each well and incubated for one hour at RT. Primary antibody solution was prepared (anti-trimethyl-MEKK2 at 1:600 dilution plus mouse anti-flag antibody at 1:10,000 dilution in diluent (Odyssey Blocking buffer+0.1% Tween 20)) and 20 μL per well was dispensed using the Multidrop Combi. Assay plates were then sealed with foil, and incubated overnight at 4° C. Plates were washed five times with PBS-Tween (1×) on Biotek ELx405 and blotted on paper towel to remove excess reagent.
First, the ratio for each well was determined by:
Each plate included fourteen control wells of DMSO only treatment (Minimum Inhibition) as well as fourteen control wells for maximum inhibition (Background). The average of the ratio values for each control type was calculated and used to determine the percent inhibition for each test well in the plate. Reference compound was serially diluted two-fold in DMSO for a total of nine test concentrations, beginning at 40 μM. Percent inhibition was calculated (below).
Non-linear regression curves were generated to calculate the IC50 and dose-response relationship using triplicate wells per concentration of compound.

[2] = biological target: T1, SMYD3; experiment: SMYD3 biochemical assay (SMYD3 enzyme assay on MEKK2 protein substrate, 3H-SAM scintillation proximity assay); details: read-out: SMYD3 Biochem IC50
Method in brief: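 Native full-length human SMYD3, expressed in E. coli, was preincubated with compound for 30 min at room temperature in 25 mM Tris-Cl pH 8.0, 1 mM TCEP, 0.005% BSG and 0.005% Tween 20. ³H-SAM plus GST-MEKK2 then started the reaction. It was stopped with unlabeled SAM (100 uM final), and methylated MEKK2 was read by SPA.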

[3] = Table 3A, average of n = 1 to n = 50, read-out: SMYD3 cell IC50
[4] = Table 3A, average of n = 1 to n = 50

T1 sequence (Q9H7B4 whole entry): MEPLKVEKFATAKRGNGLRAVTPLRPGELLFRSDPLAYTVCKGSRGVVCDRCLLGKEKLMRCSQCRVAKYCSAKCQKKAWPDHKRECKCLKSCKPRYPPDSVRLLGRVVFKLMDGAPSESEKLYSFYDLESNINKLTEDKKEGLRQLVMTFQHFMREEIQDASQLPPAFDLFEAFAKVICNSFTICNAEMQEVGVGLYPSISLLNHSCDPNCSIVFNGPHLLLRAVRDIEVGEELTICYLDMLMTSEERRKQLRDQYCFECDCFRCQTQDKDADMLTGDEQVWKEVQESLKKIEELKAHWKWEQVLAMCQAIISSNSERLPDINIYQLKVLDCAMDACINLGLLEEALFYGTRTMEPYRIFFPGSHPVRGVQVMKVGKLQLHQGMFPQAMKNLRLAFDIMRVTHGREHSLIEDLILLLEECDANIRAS

## O=C1Cc2cc(C(=O)N[C@H]3C[C@H]4CC[C@@H](C3)N4S(=O)(=O)N3CCC(NCc4ccccc4)CC3)ccc2N1 [Cpd. No. 587, N-[(1R,3r,5S)-8-[4-(benzylamino)piperidine-1-sulfonyl]-8-azabicyclo[3.2.1]octan-3-yl]-2-oxo-2,3-dihydro-1H-indole-5-carboxamide]
[1]; [3]
  IC50: 71 nM
[2]; [4]
  IC50: 1.98 nM

## O=C1Cc2cc(C(=O)N[C@H]3C[C@H]4CC[C@@H](C3)N4S(=O)(=O)CC3CCN(CCCC(F)(F)F)CC3)c(Cl)cc2N1 [Cpd. No. 595, 6-chloro-2-oxo-N-((1S,3r,5R)-8-((1-(4,4,4-trifluorobutyl)piperidin-4-yl)methylsulfonyl)-8-aza-bicyclo[3.2.1]octan-3-yl)indoline-5-carboxamide]
[1]; [3]
  IC50: 36.1 nM
[2]; [4]
  IC50: 3.54 nM

## O=C(N[C@H]1C[C@H]2CC[C@@H](C1)N2S(=O)(=O)CC1CCNCC1)c1ccc2[nH]c(=O)oc2c1 [Cpd. No. 601, 2-oxo-N-((1R,3r,5SR)-8-(piperidin-4-ylmethylsulfonyl)-8-aza-bicyclo[3.2.1]octan-3-yl)-2,3-dihydrobenzo[d]oxazole-6-carboxamide Hydrochloride]
[1]; [3]
  IC50: 4540 nM
[2]; [4]
  IC50: 5.21 nM

## CCc1cc(C(=O)N[C@H]2C[C@H]3CC[C@@H](C2)N3S(=O)(=O)N2CCC(N)CC2)ns1 [Cpd. No. 610, N-[(1R,3r,5S)-8-(4-aminopiperidine-1-sulfonyl)-8-azabicyclo[3.2.1]octan-3-yl]-5-ethyl-1,2-thiazole-3-carboxamide Hydrochloride]
[1]; [3]
  IC50: 216 nM
[2]; [4]
  IC50: 23.8 nM

## NC1CCC(S(=O)(=O)N2[C@@H]3CC[C@H]2C[C@@H](NC(=O)c2ccc4c(c2)OC(F)(F)O4)C3)CC1 (stereo partly drawn) [Cpd. No. 622, N-((1R,3r,5S)-8-(4-aminocyclohexylsulfonyl)-8-aza-bicyclo[3.2.1]octan-3-yl)-2,2-difluorobenzo[d][1,3]dioxole-5-carboxamide Trifluoroacetate]
[1]; [3]
  IC50: 1080 nM
[2]; [4]
  IC50: 131 nM

## C[C@H]1Oc2ccc(C(=O)N[C@H]3C[C@H]4CC[C@@H](C3)N4S(=O)(=O)CC3CCNCC3)cc2NC1=O [Cpd. No. 625, (2R)-2-methyl-3-oxo-N-[(1R,3r,5S)-8-[(piperidin-4-ylmethane)sulfonyl]-8-azabicyclo[3.2.1]octan-3-yl]-3,4-dihydro-2H-1,4-benzoxazine-6-carboxamide Hydrochloride]
[1]; [3]
  IC50: ≥ 10000 nM
[2]; [4]
  IC50: 185 nM

## C[C@@H](N)CC(=O)N[C@H]1CC[C@H](NC(=O)c2ccc3c(c2)CC(=O)N3)CC1 [compound 453, N-((1r,4r)-4-((R)-3-aminobutanamido)cyclohexyl)-2-oxoindoline-5-carboxamide]
[1]; read-out: SMYD3 Cell IC50
  IC50: > 40000 nM
[2]
  IC50: 260 nM

## NCCC(=O)N[C@H]1CC[C@H](NC(=O)c2cc3c(cc2Cl)NC(=O)C3)CC1 [compound 491, N-((1r,4r)-4-(3-aminopropanamido)cyclohexyl)-6-chloro-2-oxoindoline-5-carboxamide]
[1]; read-out: SMYD3 Cell IC50
  IC50: > 40000 nM
[2]
  IC50: 150 nM

## N[C@H]1CC[C@H](S(=O)(=O)N2[C@@H]3CC[C@H]2C[C@@H](NC(=O)c2ccc4c(c2)CC(=O)N4)C3)CC1 [compound 575, N-((1R,3R,5S)-8-(((1r,4R)-4-aminocyclohexyl)sulfonyl)-8-azabicyclo[3.2.1]octan-3-yl)-2-oxoindoline-5-carboxamide]
[1]; [3]
  IC50: 2170 nM
[2]
  IC50: 0.44 nM

## NC1CCN(S(=O)(=O)N2[C@@H]3CC[C@H]2C[C@@H](NC(=O)c2cc4c(cc2F)NC(=O)C4)C3)CC1 [compound 576, N-((1R,3r,5S)-8-((4-aminopiperidin-1-yl)sulfonyl)-8-azabicyclo[3.2.1]octan-3-yl)-6-fluoro-2-oxoindoline-5-carboxamide]
[1]; [3]
  IC50: 525 nM
[2]; [4]
  IC50: 0.49 nM

## CN1CCC(CS(=O)(=O)N2[C@@H]3CC[C@H]2C[C@@H](NC(=O)c2ccc4c(c2)CC(=O)N4)C3)CC1 [compound 577, N-((1R,3r,5S)-8-(((1-methylpiperidin-4-yl)methyl)sulfonyl)-8-azabicyclo[3.2.1]octan-3-yl)-2-oxoindoline-5-carboxamide]
[1]; [3]
  IC50: 481 nM
[2]
  IC50: 0.67 nM

## NC1CCN(S(=O)(=O)N2[C@@H]3CC[C@H]2C[C@@H](NC(=O)c2ccc4c(c2)CC(=O)N4)C3)CC1 [compound 578, N-((1R,3r,5S)-8-((4-aminopiperidin-1-yl)sulfonyl)-8-azabicyclo[3.2.1]octan-3-yl)-2-oxoindoline-5-carboxamide]
[1]; [3]
  IC50: 854 nM
[2]
  IC50: 0.68 nM

## NC1CCN(S(=O)(=O)N2[C@@H]3CC[C@H]2C[C@@H](NC(=O)c2cc4c(cc2Cl)NC(=O)C4)C3)CC1 [compound 579, N-((1R,3r,5S)-8-((4-aminopiperidin-1-yl)sulfonyl)-8-azabicyclo[3.2.1]octan-3-yl)-6-chloro-2-oxoindoline-5-carboxamide]
[1]; [3]
  IC50: 1130 nM
[2]; [4]
  IC50: 0.81 nM

## C[C@H]1C[C@@H](NC(=O)c2ccc3c(c2)CC(=O)N3)CCN1S(=O)(=O)N1CCC(N)CC1 [compound 580, N-((2S,4S)-1-((4-aminopiperidin-1-yl)sulfonyl)-2-methylpiperidin-4-yl)-2-oxoindoline-5-carboxamide]
[1]; [3]
  IC50: 1640 nM
[2]; [4]
  IC50: 0.9 nM

## O=C1Cc2cc(C(=O)N[C@H]3C[C@H]4CC[C@@H](C3)N4S(=O)(=O)CC3CCN(CCCO)CC3)ccc2N1 [compound 581, N-((1R,3r,5S)-8-(((1-(3-hydroxypropyl)piperidin-4-yl)methyl)sulfonyl)-8-azabicyclo[3.2.1]octan-3-yl)-2-oxoindoline-5-carboxamide]
[1]; [3]
  IC50: 1670 nM
[2]; [4]
  IC50: 0.95 nM

## C[C@H]1C[C@@H](NC(=O)c2cc3c(cc2Cl)NC(=O)C3)CCN1S(=O)(=O)N1CCC(N)CC1 [compound 582, N-((2S,4S)-1-((4-aminopiperidin-1-yl)sulfonyl)-2-methylpiperidin-4-yl)-6-chloro-2-oxoindoline-5-carboxamide]
[1]; [3]
  IC50: 814 nM
[2]; [4]
  IC50: 0.98 nM

## N[C@H]1CC[C@H](S(=O)(=O)N2[C@@H]3CC[C@H]2C[C@@H](NC(=O)c2cc4c(cc2Cl)NC(=O)C4)C3)CC1 [compound 583, N-((1R,3R,5S)-8-(((1r,4R)-4-aminocyclohexyl)sulfonyl)-8-azabicyclo[3.2.1]octan-3-yl)-6-chloro-2-oxoindoline-5-carboxamide]
[1]; [3]
  IC50: 1510 nM
[2]; [4]
  IC50: 1.1 nM

## C[C@H]1CC(NC(=O)c2ccc3c(c2)CC(=O)N3)CCN1S(=O)(=O)c1ccc(C(C)(C)N)cc1 (stereo partly drawn) [compound 584, N-((2S)-1-((4-(2-aminopropan-2-yl)phenyl)sulfonyl)-2-methylpiperidin-4-yl)-2-oxoindoline-5-carboxamide]
[1]; [3]
  IC50: 653 nM
[2]; [4]
  IC50: 1.47 nM

## O=C1Cc2cc(C(=O)N[C@H]3C[C@H]4CC[C@@H](C3)N4S(=O)(=O)CC3CCN(CCCO)CC3)c(Cl)cc2N1 [compound 585, 6-chloro-N-((1R,3r,5S)-8-(((1-(3-hydroxypropyl)piperidin-4-yl)methyl)sulfonyl)-8-azabicyclo[3.2.1]octan-3-yl)-2-oxoindoline-5-carboxamide]
[1]; [3]
  IC50: 764 nM
[2]; [4]
  IC50: 1.73 nM

## CNC1CCN(S(=O)(=O)N2[C@@H]3CC[C@H]2C[C@@H](NC(=O)c2cc4c(cc2Cl)NC(=O)C4)C3)CC1 [compound 586, 6-chloro-N-((1R,3r,5S)-8-((4-(methylamino)piperidin-1-yl)sulfonyl)-8-azabicyclo[3.2.1]octan-3-yl)-2-oxoindoline-5-carboxamide]
[1]; [3]
  IC50: 425 nM
[2]; [4]
  IC50: 1.89 nM

From patent publication US10266526B2, “Substituted 1,2,3-triazoles as SMYD inhibitors for treating cancer” (EPIZYME, INC., priority 2014, dated 2019)
